Test results from patent US8198279B2, “Pyrido[2,3-b]pyrazin-8-substituted compounds and their use” (Institute of Cancer Research: Royal Cancer Hospital (The), priority 2007, dated 2012).

Experiments:
pERK = assay: Cell Based Phospho-ERK Assay; conditions: 6 h, 6 hours incubation with test compound
Protocol: Biological Methods—Cell Based Phosho-ERK Assay
Compounds were assessed using a cell-based assay which was performed according to the following protocol.
Plate out 16,000 cells/well in 99 μL medium in a 96-well plate.
• 1. Add 1 μL inhibitor to the cells (total […] solution). • 2. Incubate the cells with test compound for 6 hours at 37° C. • 3. Aspirate off the solution from all of the wells. • 4. Fixate the cells with 100 μL 4% formaldehyde/0.25% Triton X-100 PBS per well. • 5. Incubate the plate for 1 hour at 4° C. • 6. Aspirate off the fixing solution and add 300 μL TBS per well. • 7. Leave the plate overnight at 4° C. Day 2: • 1. Wash the plate 2× with 200 μL PBS per well. • 2. Block with 100 μL 5% dried milk in TBS. • 3. Incubate the plate for 20 minutes at 37° C. • 4. Wash the plate 2× with 0.1% tween/H2O. • 5. Add 50 μL of 3 μg/mL primary antibody pERK (Sigma M8159), diluted in 5% milk powder/TBS, to each well. • 6. Incubate the plate for 2 hours at 37° C. • 7. Wash the plate 3× with 0.1% tween/H2O. • 8. Add 50 μL of 0.45 μg/mL secondary Europium-labelled anti-mouse antibody (Perkin Elmer) to each well. • 9. Incubate the plate for 1 hour at 37° C. • 10. Wash the plate 3× with 0.1% tween/H2O. • 11. Add 100 μL enhancement solution (Perkin Elmer) to each well. • 12. Leave the plate for approximately 10 minutes at room temperature before gently shaking the plate. • 13. Read Europium Time Resolved Fluorescence in Victor2. • 14. Wash the plate 2× with 0.1% tween/H2O. • 15. Measure the protein concentration with BCA (Sigma) by adding 200 μL of solution per well. • 16. Incubate the plate for 30 minutes at 37° C. • 17. Read absorbance levels at 570 nm in a plate reader.
Note that Europium counts are normalised for protein levels by dividing counts by absorbance.
Values for the blank (no cells) are subtracted from all values. The DMSO controls are set as 100% activity and assay points (the response) are calculated as a percentage of the DMSO control. Data are plotted using Graphpad Prism software and a non-linear regression line is calculated using a variable slope sigmoidal dose-response equation (Y=Bottom+(Top−Bottom)/(1+10^((LogEC50−X)*HillSlope)) where X is the logarithm of concentration. Y is the response). The IC50 generated by this procedure is the concentration of the drug that produces a percentage control fluorescence value midway between the saturation, and zero-effect plateaus. Three independent assays are usually performed and the mean IC50 is reported.

B-RAF = molecular target: T1, B-RAF (Homo sapiens, UniProt P15056, V600E); assay: DELFIA Kinase Assay; assay type: biochemical; conditions: 100 μM ATP, GST-MEK substrate
T1 construct: made in house
Method in brief: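 Recombinant B-RAF (V600E) with GST-MEK substrate was preincubated with compound for 10 min at room temperature, then reacted with 100 μM ATP for 45 min on milk-preblocked wells, with antibody detection by DELFIA europium fluorescence. Response is taken as % of DMSO control after empty-vector blank subtraction; IC50 is from a variable-slope sigmoidal fit, mean of usually three independent runs.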

WM266.4 melanoma cells = assay: SRB Cell Proliferation Assay (SRB GI50); assay type: cell-based; conditions: Homo sapiens, WM 266-4, 144 h, 6 days growth
Method in brief: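 WM266.4 cells (1000/well) grown 6 days with compound at 100 μM to 0.005 μM (3-fold dilutions) in DMEM/10% FBS at 37 °C. Cells TCA-fixed, sulphorhodamine-B stained, A540 read. GI50 is the concentration giving A540, as % of untreated control, midway between the plateaus.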

T1 sequence (P15056 whole entry V600E): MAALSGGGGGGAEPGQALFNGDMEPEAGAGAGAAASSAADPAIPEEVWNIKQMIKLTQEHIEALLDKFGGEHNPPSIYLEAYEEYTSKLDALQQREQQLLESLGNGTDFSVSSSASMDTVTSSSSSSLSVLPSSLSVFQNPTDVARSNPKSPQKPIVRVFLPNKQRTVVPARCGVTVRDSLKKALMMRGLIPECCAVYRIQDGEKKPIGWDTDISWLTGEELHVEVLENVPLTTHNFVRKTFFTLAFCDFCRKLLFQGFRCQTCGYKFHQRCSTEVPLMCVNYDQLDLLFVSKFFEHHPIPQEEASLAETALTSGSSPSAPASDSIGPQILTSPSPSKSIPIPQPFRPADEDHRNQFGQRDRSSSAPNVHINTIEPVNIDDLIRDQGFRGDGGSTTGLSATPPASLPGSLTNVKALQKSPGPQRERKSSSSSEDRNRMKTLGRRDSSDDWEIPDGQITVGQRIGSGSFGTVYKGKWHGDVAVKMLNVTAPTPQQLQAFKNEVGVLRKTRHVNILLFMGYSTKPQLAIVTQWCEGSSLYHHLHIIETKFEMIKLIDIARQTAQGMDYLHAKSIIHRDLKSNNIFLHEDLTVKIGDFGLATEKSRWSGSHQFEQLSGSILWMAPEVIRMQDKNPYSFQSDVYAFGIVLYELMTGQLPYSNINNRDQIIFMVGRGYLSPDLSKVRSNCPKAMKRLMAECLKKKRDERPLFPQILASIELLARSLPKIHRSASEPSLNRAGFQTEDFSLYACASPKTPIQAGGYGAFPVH

Compound | IC50 (pERK) [µM] | IC50 (B-RAF) [µM] | GI50 (WM266.4 melanoma cells) [µM]
Cc1ccc(-n2nc(C(C)(C)C)cc2NC(=O)Nc2ccc(Oc3ccnc4[nH]c(=O)cnc34)cc2F)cn1 [AA-084, 1-(3-tert-butyl-1-(6-methylpyridin-3-yl)-1H-pyrazol-5-yl)-3-(2-fluoro-4-(3-oxo-3,4-dihydropyrido[3,2-b]pyrazin-8-yloxy)phenyl)urea] | < 1 | 0.1 to 1 | < 1
O=C(Nc1ccc(Oc2ccnc3[nH]c(=O)cnc23)c(F)c1)Nc1cc(C(F)(F)F)ccc1F [AA-086, 1-(3-fluoro-4-(3-oxo-3,4-dihydropyrido[2,3-b]pyrazin-8-yloxy)phenyl)-3-(2-fluoro-5-(trifluoromethyl)phenyl)urea] | 1 to 10 | < 0.1 | 1 to 10
Cc1ccc(-n2nc(C(C)(C)C)cc2NC(=O)Nc2ccc(Oc3ccnc4[nH]c(=O)cnc34)c(F)c2)cc1 [AA-088, 1-(3-tert-butyl-1-p-tolyl-1H-pyrazol-5-yl)-3-(3-fluoro-4-(3-oxo-3,4-dihydropyrido[2,3-b]pyrazin-8-yloxy)phenyl)urea] | < 1 | < 0.1 | < 1
CC(C)(C)c1cc(NC(=O)Nc2ccc(Oc3ccnc4ncc(=O)[nH]c34)cc2F)n(-c2ccccc2)n1 [AA-089, 1-(3-tert-butyl-1-phenyl-1H-pyrazol-5-yl)-3-(2-fluoro-4-(2-oxo-1,2-dihydropyrido[3,2-b]pyrazin-8-yloxy)phenyl)urea] | < 1 | 0.1 to 1 | < 1
CC(C)(C)c1cc(NC(=O)Nc2ccc(Oc3ccnc4[nH]c(=O)cnc34)cc2F)n(-c2ccc(S(C)(=O)=O)cc2)n1 [AA-090, 1-(3-tert-butyl-1-(4-(methylsulfonyl)phenyl)-1H-pyrazol-5-yl)-3-(2-fluoro-4-(3-oxo-3,4-dihydropyrido[3,2-b]pyrazin-8-yloxy)phenyl)urea] | < 1 | 0.1 to 1 | < 1
CC(C)(C)c1cc(NC(=O)Nc2ccc(Oc3ccnc4[nH]c(=O)c(=O)[nH]c34)cc2F)n(-c2ccccc2)n1 [AA-091, 1-(3-Tert-butyl-1-phenyl-1H-pyrazol-5-yl)-3-(4-(2,3-dioxo-1,2,3,4-tetrahydropyrido[3,2-b]pyrazin-8-yloxy)-2-fluorophenyl)urea] | < 1 | 0.1 to 1 | < 1
CC(C)(C)c1cc(NC(=O)Nc2ccc(Oc3ccnc4[nH]c(=O)c(=O)[nH]c34)cc2F)n(-c2ccc(S(C)(=O)=O)cc2)n1 [AA-092, 1-(3-tert-butyl-1-(4-(methylsulfonyl)phenyl)-1H-pyrazol-5-yl)-3-(4-(2,3-dioxo-1,2,3,4-tetrahydropyrido[3,2-b]pyrazin-8-yloxy)-2-fluorophenyl)urea] | 1 to 10 | 0.1 to 1 | 1 to 10
O=C(Nc1ccc(Oc2ccnc3[nH]c(=O)cnc23)cc1F)Nc1cc(C(F)(F)F)ccc1Oc1cccnc1 [AA-093, 1-(2-fluoro-4-(3-oxo-3,4-dihydropyrido[3,2-b]pyrazin-8-yloxy)phenyl)-3-(2-(pyridin-3-yloxy)-5-(trifluoromethyl)phenyl)urea] | < 1 | < 0.1 | 1 to 10
O=C(Nc1ccc(Oc2ccnc3[nH]c(=O)cnc23)cc1F)Nc1cc(C(F)(F)F)ccc1-n1cccn1 [AA-094, 1-(2-(1H-pyrazol-1-yl)-5-(trifluoromethyl)phenyl)-3-(2-fluoro-4-(3-oxo-3,4-dihydropyrido[3,2-b]pyrazin-8-yloxy)phenyl)urea] | < 1 | < 0.1 | 1 to 10
C=CCn1nc(C(C)(C)C)cc1NC(=O)Nc1ccc(Oc2ccnc3[nH]c(=O)cnc23)cc1F [AA-095, 5-[(4-amino-2-fluorophenyl-oxy)carbonylamino-5-(1-N-allyl-3-t-butyl-imidazolyl)]-pyridin-[2, 3]-3-pyrazin-2-one] | < 1 | < 0.1 | 1 to 10
C#CCn1nc(C(C)(C)C)cc1NC(=O)Nc1ccc(Oc2ccnc3[nH]c(=O)cnc23)cc1F [AA-096] | < 1 | < 0.1 | 1 to 10
CC(C)(C)c1cc(NC(=O)Nc2ccc(Oc3ccnc4[nH]c(=O)cnc34)cc2F)n(CC2CC2)n1 [AA-097, 1-(3-Tert-butyl-1-(cyclopropylmethyl)-1H-pyrazol-5-yl)-3-(2-fluoro-4-(3-oxo-3,4-dihydropyrido[3,2-b]pyrazin-8-yloxy)phenyl)urea] | < 1 | < 0.1 | 1 to 10
COCn1nc(C(C)(C)C)cc1NC(=O)Nc1ccc(Oc2ccnc3[nH]c(=O)cnc23)cc1F [AA-098, 1-(3-Tert-butyl-1-(methoxymethyl)-1H-pyrazol-5-yl)-3-(2-fluoro-4-(3-oxo-3,4-dihydropyrido[3,2-b]pyrazin-8-yloxy)phenyl)urea] | 1 to 10 | < 0.1 | 1 to 10
